Experiments:
[1] = system: Haliotis rufescens larvae; conditions: cited from earlier work; for induction of larvae settlement: in vivo
[2] = system: larvae of Haliotis discus hannai; conditions: in vivo; cited from earlier work
[3] = system: Haliotis rufescens; conditions: in vivo; cited from earlier work
[4] = system: two different species of Haliotis; conditions: cited from earlier work
[5] = system: chemically induced electrographic seizures; test: Focal perfusion of rat cerebral cortex, chemically induced electrographic seizures; format: in vivo; conditions: focal perfusion of local areas of rat cerebral cortex; personal experience
[6] = target: T1, thyroxine-binding globulin (Homo sapiens, UniProt P05543); conditions: cited from earlier work
T1 sequence (P05543 21-415): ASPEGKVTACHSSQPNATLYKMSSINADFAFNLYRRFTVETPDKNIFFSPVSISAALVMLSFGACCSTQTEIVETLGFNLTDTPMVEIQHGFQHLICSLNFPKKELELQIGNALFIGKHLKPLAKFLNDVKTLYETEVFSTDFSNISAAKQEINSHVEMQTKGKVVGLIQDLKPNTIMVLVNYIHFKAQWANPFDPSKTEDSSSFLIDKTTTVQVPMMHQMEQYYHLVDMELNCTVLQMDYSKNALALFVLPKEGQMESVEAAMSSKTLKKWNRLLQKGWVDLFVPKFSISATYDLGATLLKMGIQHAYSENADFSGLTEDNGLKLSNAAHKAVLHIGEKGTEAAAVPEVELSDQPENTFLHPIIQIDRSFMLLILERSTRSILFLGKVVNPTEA

SMILES | induction of larvae settlement [1] | further results
NC(=O)CC[C@H](N)C(=O)O [L-glutamine] | completely ineffective | –
N[C@@H](CCC(=O)O)C(=O)O [L-glutamate] | did slowly promote larval settlement | –
CNC[C@H](O)c1ccc(O)c(O)c1 [epinephrine] | not able to induce | –
NCC(=O)O [glycine] | can also induce Haliotis larvae settlement | –
CBr [bromomethane] | – | induction in larvae [2]: induction has been triggered
Br [Br^−] | – | induction of settlement by anion replacement ([1]; replacing 25-75% of the Cl^− in seawater): may be induced
NC[C@H](O)c1ccc(O)c(O)c1 [norepinephrine] | not able to induce | –
CCCC(=O)O [n-butyric acid] | not able to induce | –
NCCc1c[nH]c2ccc(O)cc12 [serotonin] | not able to induce | –
NCCCCC(=O)O [δ-amniovaleric] | can also induce Haliotis larvae settlement | –
[Na+] [Na^+] | not able to induce | –
NCCCCCC(=O)O [ε-amniocaproic acid] | can also induce Haliotis larvae settlement | –
NCCC(=O)O [β-alanine] | can also induce Haliotis larvae settlement | –
CCCCN [n-butylamine] | not able to induce | –
[K+] [potassium] | – | promotion of settlement ([1]; higher concentrations of K^+): will not promote settlement; effect on settlement induction by GABA ([1]; low concentration of K^+): inhibit induction by GABA; larva attached ([1]; ˜10 mM above that found in seawater, within 72 hours): up to 90%
NCCCC(=O)O [GABA, γ-aminobutyric acid] | – | larval attachment ([1]; 10^−6 molar in sea water): 96-100%
NCCc1c[nH]cn1 [histamine] | not able to induce | –
N[C@@H](Cc1cc(I)c(Oc2cc(I)c(O)c(I)c2)c(I)c1)C(=O)O [L-thyroxine] | – | induction of larval metamorphosis [3]: could induce larval metamorphosis; induction of larval metamorphosis [4]: can induce larval metamorphosis
[Cl-].[K+] [potassium chloride] | – | effect on chemically induced electrographic seizures [5]: may prevent or abort
N[C@H](CCC(=O)O)C(=O)O [D-glutamate] | completely ineffective | –
NCc1cc(=O)[nH]o1 [muscimol] | can also induce Haliotis larvae settlement | –
[Mg+2] [Mg^+2] | not able to induce | –
N[C@@H](Cc1cc(I)c(Oc2ccc(O)c(I)c2)c(I)c1)C(=O)O [T3] | – | induction of larval metamorphosis [4]: can induce larval metamorphosis
CN1C(=O)CN=C(c2ccccc2)c2cc(Cl)ccc21 [diazepam] | – | inhibition of thyroxine binding to thyroxine-binding globulin [6]: competitively inhibit
